These results are taken from publication PMC10002517, “Inhibition of Transglutaminase 2 as a Therapeutic Strategy in Celiac Disease—In Vitro Studies in Intestinal Cells and Duodenal Biopsies” (International Journal of Molecular Sciences, 2023).

Series [1] deals with T1, extracellular TG2 on Caco-2 cells (Homo sapiens, UniProt P21980).
T1 construct: endogenous in cells; host or cells: Caco-2 (differentiated; IFN-γ-stimulated in the monolayer assay)
T1 sequence (P21980 1-687): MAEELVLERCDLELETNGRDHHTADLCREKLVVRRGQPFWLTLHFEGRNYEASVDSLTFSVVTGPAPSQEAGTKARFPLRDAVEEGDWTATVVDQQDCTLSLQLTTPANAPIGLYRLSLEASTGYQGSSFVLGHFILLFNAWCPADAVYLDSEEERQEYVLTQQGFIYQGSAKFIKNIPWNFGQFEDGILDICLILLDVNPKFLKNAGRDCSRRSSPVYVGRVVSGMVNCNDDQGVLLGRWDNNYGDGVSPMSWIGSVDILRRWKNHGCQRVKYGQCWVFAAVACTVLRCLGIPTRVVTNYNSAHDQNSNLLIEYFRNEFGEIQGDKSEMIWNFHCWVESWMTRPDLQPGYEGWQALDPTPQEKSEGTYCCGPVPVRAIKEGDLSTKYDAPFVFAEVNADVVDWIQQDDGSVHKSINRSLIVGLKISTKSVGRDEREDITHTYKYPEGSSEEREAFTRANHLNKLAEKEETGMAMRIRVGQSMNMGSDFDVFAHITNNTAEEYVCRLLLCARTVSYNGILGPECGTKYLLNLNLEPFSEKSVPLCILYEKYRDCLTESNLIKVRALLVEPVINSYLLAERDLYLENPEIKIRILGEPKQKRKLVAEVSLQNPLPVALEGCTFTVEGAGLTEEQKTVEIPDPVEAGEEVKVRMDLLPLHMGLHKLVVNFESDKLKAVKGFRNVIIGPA
Briefly: Extracellular TG2 activity on confluent Caco-2 cell monolayers (5BP cross-linking). The class given is cell-based. The note with it: n = 4; for reduction of TG2 activity on the cell surface: IFN-γ-stimulated Caco-2 cells, 5BP 3 h. On the procedure: The method was adapted from Yi et al.. To induce TG2 expression, Caco-2 cells were stimulated with IFN-γ 1000 IU/mL for 48 h. Then, cells were washed three times with warm PBS and incubated with the substrate 5BP for 3 h at 37 °C in 50 mM Tris and 1 mM EDTA (pH 7.5). The substances ERW1041, PX-12 and DTT were added to this solution when indicated. After incubation, cells were washed three times with PBS, fixed with 4% paraformaldehyde for 10 min and blocked with 5% BSA in PBS at 4 °C overnight. Then, cells were incubated at room temperature with streptavidin-Alexa488 (Thermo Scientific, 4 µg/mL) in 5% BSA in the dark for 1 h, followed by three washes with PBS. Fluorometric quantitation was conducted using a FLUOstar Optima microplate reader (BMG Labtech, filter settings: excitation 485 nm, emission 525 nm). Manual gain adjustment was performed, setting the well with the most intense signal as 95%. In all experiments, data were background subtracted against a control without 5BP substrate.

For series [2], the system named is transepithelial passage of P31-43 in Caco-2 cells. Briefly: Transepithelial transport of promofluor-conjugated gliadin peptide P31-43 across Caco-2 monolayers (fluorometry). Format: cell-based, human. The note with it: 1 µM and 100 µM inhibitor; 3 h. On the procedure:
Transepithelial transport of immunogenic and toxic gliadin peptides were examined in Caco-2 cells 7–14 days after confluency. Caco-2 cells were seeded on semi-permeable transwell supports (ThinCert, culture surface: 33.6 mm², pore size: 0.4 µm) in 24-well plates (Greiner Bio One, Pleidelsheim, Germany). Prior to the transport experiments, the integrity of the cell monolayer was tested by measuring the transepithelial electric resistance (TEER) using a volt-ohm meter (Millipore, Schwalbach, Germany). Monolayers with insufficient TEER (<350 Ω/cm^2) were omitted. The synthesis and purification of promofluor-conjugated gliadin peptides were described elsewhere. Cells were either incubated with the immunogenic peptide P56-88 ([…]) or the toxic gliadin peptide P31-43 (LGQQQPFPPQQPY), 7 µg/mL each, in Hank’s balanced salt solution (HBSS) for 3 h. To investigate the role of TG2 on the transport of gliadin peptides, incubation was performed in the presence of ERW1041 and PX-12. After 3 h, basal and apical supernatants were collected, and the relative fluorescence of the basal compartment was quantified using a FLUOstar Optima (BMG Labtech) microplate reader. Background subtraction was performed against conditions, where no labeled peptides were used. Normalization was performed against conditions, where no inhibitors were used.
Background: Passage across Caco-2 layers is used to estimate intestinal permeability.

For series [3] the following is noted: given intravenously, clinical trials; rapid binding to plasma components; cited from earlier work. The source says:
This might be explained by rapid degradation or reduction of PX-12 by living cells. This is in line with observations in clinical trials, where PX-12 plasma levels were very low when given intravenously due to rapid binding to plasma components.

Another series relates to tumor cell lines. The note with it: 10 µM; cited from earlier work. The protocol:
To further examine the applicability of both substances, we analyzed their effect on the viability of Caco-2 cells. […] In those studies, however, viability was determined in tumor cell lines and not in differentiated int ...

Regarding `O=C(NC[C@@H]1CC(Br)=NO1)[C@@H]1CCCN1C(=O)OCc1cnc2ccccc2c1` [ERW1041], the “reduction of TG2 activity on the cell surface” value in series [1] (10 µM) is “about 32%”; in series [1] (100 µM), approximately 70%. Moreover, in series [2], the “transport of P31-43” value was “remained unaffected”.
In the case of `CCC(C)SSc1ncc[nH]1` (stereo not drawn) [PX-12, 2-[(1-methylpropyl)dithio]-1H-imidazole], the plasma levels entry in series [3] is given as “very low”. Besides, in the series on tumor cell lines, the cytotoxicity result is recorded as “cytotoxic effects”. Moreover, the “inhibition of TG2 on confluent Caco-2 monolayers” value in series [1] (concentrations between 10 nM and 100 µM) is recorded as “did not observe any significant inhibition of TG2”.
